Experimental data reported in PubChem BioAssay (NCI).
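Briefly, cells in 96-well plates were exposed to five compound concentrations for 48 h, and endpoints were estimated by linear interpolation. Abbreviation: GI50, concentration required for 50% inhibition of growth. TGI denotes the concentration required for complete inhibition of growth.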

Tests used:
Experiment in all cases: NCI-60 cell line screen, 48 h
HL-60(TB) leukemia = system: HL-60(TB) leukemia
HCT-15 colon = system: HCT-15 colon
NCI-H23 lung = system: NCI-H23 lung
OVCAR-5 ovarian = system: OVCAR-5 ovarian
LOX IMVI melanoma = system: LOX IMVI melanoma
M14 melanoma = system: M14 melanoma
MOLT-4 leukemia = system: MOLT-4 leukemia
SNB-19 CNS = system: SNB-19 CNS
CCRF-CEM leukemia = system: CCRF-CEM leukemia
NCI-H522 lung = system: NCI-H522 lung

Row | Compound | TGI (HL-60(TB) leukemia) | TGI (HCT-15 colon) | TGI (NCI-H23 lung) | TGI (OVCAR-5 ovarian) | TGI (LOX IMVI melanoma) | TGI (M14 melanoma) | TGI (MOLT-4 leukemia) | TGI (SNB-19 CNS) | TGI (CCRF-CEM leukemia) | GI50 (HCT-15 colon) | GI50 (NCI-H23 lung) | GI50 (OVCAR-5 ovarian) | GI50 (LOX IMVI melanoma) | GI50 (M14 melanoma) | GI50 (MOLT-4 leukemia) | GI50 (NCI-H522 lung) | TGI (NCI-H522 lung) | GI50 (SNB-19 CNS) | GI50 (CCRF-CEM leukemia) | GI50 (HL-60(TB) leukemia)
1 | O=C(O)C(SC(=S)c1ccc(C(=S)SC(C(=O)O)c2ccccc2)cc1)c1ccccc1 (stereo unspecified) | > 100 µM | > 100 µM | > 100 µM | > 100 µM | > 100 µM | > 100 µM | > 100 µM | > 100 µM | > 100 µM |  |  |  |  |  |  |  |  |  |  | 
2 | COc1ccc2c(c1)c(=O)oc1cc(OC/C(C)=N\O)ccc12 |  | > 100 µM | > 100 µM | > 100 µM | > 100 µM | > 100 µM | > 100 µM | > 100 µM | > 100 µM | > 100 µM | > 100 µM | > 100 µM | > 100 µM | > 100 µM | > 100 µM | 44.5 µM | > 100 µM | 48.3 µM | > 100 µM | 
3 | Cc1ccc2nc(NC(=O)C(=O)C(C#N)c3nc4ccccc4s3)sc2c1 (stereo unspecified) |  | > 100 µM | 83.9 µM | > 100 µM | > 100 µM | > 100 µM | 51.4 µM | 83.6 µM |  |  |  |  |  |  |  |  | > 100 µM |  |  | 
4 | CC(C)(C)n1cc(-c2ccnc(NCCCNS(=O)(=O)c3ccc(C(F)(F)F)cc3)c2)c(-c2cccc(O)c2)n1 | 7.74 µM | 2.93 µM | 3.18 µM | 3.4 µM | 3.09 µM | 3.93 µM | 6.92 µM | 3.83 µM |  | 1.47 µM | 1.67 µM | 1.81 µM | 1.72 µM | 2 µM | 2.33 µM | 1.99 µM | 3.98 µM | 1.98 µM |  | 2.81 µM
5 | COc1cc(/C=C2/C(=O)N(C(=O)OCC(C)C)C(Cc3cc(OC)c(OC)c(C)c3OC)C(=O)N2Cc2ccccc2)c(OC)c(C)c1OC (stereo unspecified) | > 100 µM |  | > 100 µM | > 100 µM | > 100 µM | > 100 µM | > 100 µM | > 100 µM | > 100 µM |  |  |  |  |  |  |  | > 100 µM |  |  | 
6 | COc1ccc2cc(C(=O)/C=C/c3ccc(Cl)cc3Cl)ccc2c1 |  | 29.7 µM | 53.4 µM | > 100 µM |  | 28 µM | 17.7 µM | 71.5 µM | > 100 µM | 9.17 µM | 20.5 µM | 48.4 µM |  | 8.75 µM | 4.01 µM | 32.8 µM | 85.5 µM | 25.7 µM | 6.74 µM | 
7 | c1ccc2[nH]c(-c3ccc(-c4nccc5c4[nH]c4ccccc45)cc3)nc2c1 | 4.59 µM | 5.61 µM | 17.7 µM | 6.47 µM |  | 3.57 µM | 6.11 µM | 30.4 µM | 9.12 µM | 2.22 µM | 3.47 µM | 2.43 µM |  | 1.79 µM | 2.32 µM | 2.06 µM | 5.04 µM | 4.21 µM | 3.12 µM | 2.03 µM
8 | CCc1cc(C(=O)OC)cn1C(=N)c1ccc(Cl)cc1 | > 100 µM | > 100 µM | > 100 µM | > 100 µM | > 100 µM | > 100 µM | > 100 µM | > 100 µM | > 100 µM |  |  |  |  |  |  |  |  |  |  | 
9 | CCN(CC)c1c(C(=O)/C=C/c2ccc(OC)cc2)c(-c2ccccc2)nn(C)c1=O | 43.9 µM |  | 34.6 µM | 28 µM | 44.9 µM |  | 19.8 µM | 45.9 µM | 45.6 µM |  |  |  |  |  |  |  |  |  |  | 
10 | Cn1cc(C(=O)NCCC(=N)N)cc1NC(=O)C1=[N+](C)C=C(NC(=O)c2cccc(C(=O)NC3=CC(C(=O)Nc4cc(C(=O)NCCC(=N)N)cn4C)=[N+](C)C3)c2)C1 | > 100 µM | > 100 µM | > 100 µM |  | > 100 µM | > 100 µM | > 100 µM | > 100 µM | > 100 µM |  |  |  |  |  |  |  | > 100 µM |  |  | 
11 | COc1ccc(C2=CC(c3ccc4c(c3)OCO4)c3c(c4ccccc4oc3=O)O2)cc1OC (stereo unspecified) | 1.67 µM | > 31.6 µM | > 100 µM | > 100 µM | > 100 µM | > 100 µM | > 100 µM | > 100 µM | > 100 µM |  |  |  |  |  |  |  |  |  |  | 
12 | O=C([CH-]C(=O)c1ccccc1)c1ccccc1.O=C([CH-]C(=O)c1ccccc1)c1ccccc1.[La+3].[OH-].[OH3+] | 22.7 µM | 48.1 µM | 48.6 µM | > 100 µM | 37.1 µM | 37.6 µM | 38.6 µM | 66.3 µM |  | 13 µM | 12.2 µM | 65.8 µM | 13.5 µM | 16.8 µM | 6.24 µM | 3.29 µM | 19.8 µM | 19.2 µM |  | 3.87 µM
13 | CN(CCCn1c2c(c3ccccc3c1=O)C(=O)c1ccccc1-2)CCCn1c2c(c3ccccc3c1=O)C(=O)c1ccccc1-2 | 12.6 µM | 2.62 µM | 5.25 µM | 3.59 µM |  | > 22.6 µM | 1.06 µM | 28 µM |  | 0.229 µM | 0.249 µM | 1.66 µM |  | 2.31 µM |  |  | > 100 µM | 0.081 µM |  | 3.65 µM
14 | CCOc1ccc2c(c1)[n+]([O-])c(-c1ccc(Cl)cc1)c(N)[n+]2[O-] | > 100 µM | > 100 µM | > 100 µM | > 100 µM |  | > 100 µM | > 100 µM | > 100 µM |  |  |  |  |  |  |  |  | > 100 µM |  |  | 
15 | O=C1c2ccccc2C(O)(O)C1(O)C1(O)C(=O)c2ccccc2C1(O)O (stereo unspecified) | 53.2 µM | 44.1 µM | 38.2 µM | > 100 µM | 58.3 µM | > 100 µM |  | > 100 µM | 44.7 µM |  |  |  |  |  |  |  | 44.5 µM |  |  | 
16 | Cc1ccc(S(=O)(=O)OC2CSS(=O)CC2OS(=O)(=O)c2ccc(C)cc2)cc1 (stereo unspecified) | 28.3 µM | 33.6 µM | 29 µM | 32.1 µM | 26.1 µM | 27.4 µM | 9.03 µM | 32 µM |  |  |  |  |  |  |  |  | 22.6 µM |  |  | 
17 | COC(=O)C1(C)CCC(c2ccc(C)cc2)=C(CC(=O)O)C1 (stereo unspecified) | > 100 µM | > 100 µM | > 100 µM | > 100 µM | > 100 µM | > 100 µM | > 100 µM | > 100 µM |  |  |  |  |  |  |  |  | > 100 µM |  |  | 
18 | COc1cc([C@@H]2OC[C@@H]3C(c4cc(OC)c5c(c4)OCO5)OC[C@@H]32)cc(OC)c1OC (stereo partly specified) |  | > 100 µM | > 100 µM | > 100 µM | > 100 µM | > 100 µM | > 100 µM | > 100 µM | > 100 µM |  |  |  |  |  |  |  | > 100 µM |  |  | 
